# Results reported in US9944602B2, “Piperidinone herbicides” (E. I. DU PONT DE NEMOURS AND COMPANY, priority 2014, dated 2018).
# Tests used:
# Type in all cases: in vivo
# [1] = tested on: barnyardgrass (Echinochloa crus-galli); assay: Test A preemergence barnyardgrass; conditions: 0 to 100 scale; for Barnyardgrass plant response rating: 0 no effect, 100 complete control; for Plant response rating, Barnyardgrass: 0 is no effect, 100 is complete control
# From the text: (§1) Seeds of plant species selected from barnyardgrass (Echinochloa crus-galli), kochia (Kochia scoparia), ragweed (common ragweed, Ambrosia elatior), ryegrass, Italian (Italian ryegrass, Lolium multiflorum), crabgrass, large (large crabgrass, Digitaria sanguinalis), foxtail, giant (giant foxtail, Setaria faberii), morningglory (Ipomoea spp.), pigweed (Amaranthus retroflexus), velvetleaf (Abutilon theophrasti), wheat (Triticum aestivum), and corn (Zea mays) were planted into a blend of loam soil and sand and treated preemergence with a directed soil spray using test chemicals formulated in a non-phytotoxic solvent mixture which included a surfactant.
# (§2) At the same time, plants selected from these crop and weed species and also blackgrass (Alopecurus myosuroides), and galium (catchweed bedstraw, Galium aparine) were planted in pots containing the same blend of loam soil and sand and treated with postemergence applications of test chemicals formulated in the same manner. Plants ranged in height from 2 to 10 cm and were in the one- to two-leaf stage for the postemergence treatment. Treated plants and untreated controls were maintained in a greenhouse for approximately 10 d, after which time all treated plants were compared to untreated controls and visually evaluated for injury. Plant response ratings, summarized in Table A, are based on a 0 to 100 scale where 0 is no effect and 100 is complete control. A dash (-) response means no test result.
# kochia (Kochia scoparia) [2] = assay: Test A preemergence kochia; conditions: 0 to 100 scale, 0 no effect, 100 complete control
# From the text: as §1, §2
# [3] = tested on: ragweed (common ragweed, Ambrosia elatior); assay: Test A preemergence ragweed; conditions: 0 to 100 scale, 0 no effect, 100 complete control
# From the text: as §1, §2
# [4] = tested on: ryegrass, Italian (Italian ryegrass, Lolium multiflorum); assay: Test A preemergence ryegrass, Italian; conditions: 0 to 100 scale, 0 no effect, 100 complete control
# From the text: as §1, §2
# [5] = tested on: foxtail, giant (giant foxtail, Setaria faberii); assay: Test A preemergence foxtail, giant; conditions: 0 to 100 scale, 0 no effect, 100 complete control
# From the text: as §1, §2
# [6] = tested on: pigweed (Amaranthus retroflexus); assay: Test A preemergence pigweed; conditions: 0 to 100 scale, 0 no effect, 100 complete control
# From the text: as §1, §2
# [7] = tested on: barnyardgrass (Echinochloa crus-galli); assay: Test A postemergence barnyardgrass; conditions: 0 to 100 scale, 0 is no effect, 100 is complete control
# From the text: as §1, §2
# kochia (Kochia scoparia) [8] = assay: Test A postemergence kochia; conditions: 0 to 100 scale, 0 is no effect, 100 is complete control
# From the text: as §1, §2
# [9] = tested on: ragweed (common ragweed, Ambrosia elatior); assay: Test A postemergence ragweed; conditions: 0 to 100 scale, 0 is no effect, 100 is complete control
# From the text: as §1, §2
# [10] = tested on: ryegrass, Italian (Italian ryegrass, Lolium multiflorum); assay: Test A postemergence ryegrass, Italian; conditions: 0 to 100 scale, 0 is no effect, 100 is complete control
# From the text: as §1, §2
# [11] = tested on: foxtail, giant (giant foxtail, Setaria faberii); assay: Test A postemergence foxtail, giant; conditions: 0 to 100 scale, 0 is no effect, 100 is complete control
# From the text: as §1, §2
# [12] = tested on: pigweed (Amaranthus retroflexus); assay: Test A postemergence pigweed; conditions: 0 to 100 scale, 0 is no effect, 100 is complete control
# From the text: as §1, §2
# [13] = tested on: wheat (Triticum aestivum); assay: Test A postemergence wheat; conditions: 0 to 100 scale, 0 is no effect, 100 is complete control
# From the text: as §1, §2
# corn (Zea mays) = assay: Test A postemergence corn; conditions: 0 to 100 scale, 0 is no effect, 100 is complete control
# From the text: as §1, §2
# [14] = tested on: blackgrass (Alopecurus myosuroides); assay: Test A postemergence blackgrass; conditions: 0 to 100 scale, 0 is no effect, 100 is complete control
# From the text: as §1, §2
# [15] = tested on: galium (catchweed bedstraw, Galium aparine); assay: Test A postemergence galium; conditions: 0 to 100 scale, 0 is no effect, 100 is complete control
# From the text: as §1, §2
# rice (Oryza sativa) = assay: Test B flooded paddy test rice; conditions: Table B, Flood, scale 0 to 100
# Method: (§3) Plant species in the flooded paddy test selected from rice (Oryza sativa), sedge, umbrella (small-flower umbrella sedge, Cyperus difformis), ducksalad (Heteranthera limosa), and barnyardgrass (Echinochloa crus-galli) were grown to the 2-leaf stage for testing. At the time of treatment, test pots were flooded to 3 cm above the soil surface, treated by application of test compounds directly to the paddy water, and then maintained at that water depth for the duration of the test. Treated plants and controls were maintained in a greenhouse for 13 to 15 d, after which time all species were compared to controls and visually evaluated. […] A dash (-) response means no test result.
# [16] = tested on: sedge, umbrella (small-flower umbrella sedge, Cyperus difformis); assay: Test B flooded paddy test sedge, umbrella; conditions: Table B, Flood, scale 0 to 100
# Method: as §3
# [17] = tested on: ducksalad (Heteranthera limosa); assay: Test B flooded paddy test ducksalad; conditions: Table B, Flood, scale 0 to 100
# Method: as §3
# [18] = tested on: barnyardgrass (Echinochloa crus-galli); assay: Test B flooded paddy test barnyardgrass; conditions: Table B, Flood, scale 0 to 100
# Method: as §3
SMILES,Barnyardgrass plant response rating ([1]; 125 g ai/ha),Kochia plant response rating (kochia (Kochia scoparia) [2]; 125 g ai/ha),Kochia plant response rating (kochia (Kochia scoparia) [2]; 500 g ai/ha),Ragweed plant response rating ([3]; 125 g ai/ha),Ragweed plant response rating ([3]; 500 g ai/ha),"Ryegrass, Italian plant response rating ([4]; 125 g ai/ha)","Ryegrass, Italian plant response rating ([4]; 500 g ai/ha)","Foxtail, Giant plant response rating ([5]; 125 g ai/ha)","Foxtail, Giant plant response rating ([5]; 500 g ai/ha)",Pigweed plant response rating ([6]; 125 g ai/ha),Pigweed plant response rating ([6]; 500 g ai/ha),"Plant response rating, Barnyardgrass ([7]; 125 g ai/ha)","Plant response rating, Barnyardgrass ([7]; 500 g ai/ha)","Plant response rating, Kochia (kochia (Kochia scoparia) [8]; 125 g ai/ha)","Plant response rating, Kochia (kochia (Kochia scoparia) [8]; 500 g ai/ha)","Plant response rating, Ragweed ([9]; 125 g ai/ha)","Plant response rating, Ragweed ([9]; 500 g ai/ha)","Plant response rating, Ryegrass, Italian ([10]; 125 g ai/ha)","Plant response rating, Ryegrass, Italian ([10]; 500 g ai/ha)","Plant response rating, Foxtail, Giant ([11]; 125 g ai/ha)",other results
O=C1NCCC(c2ccccc2C(F)(F)F)C1C(=O)Nc1ccccc1C(F)(F)F (racemic) [Compound 7],0,0,0,0,0,0,0,0,0,0,0,0,0,0,0,0,0,0,0,0,"Plant response rating, Barnyardgrass ([1]; 500 g ai/ha): 0; Plant response rating, Foxtail, Giant ([11]; 500 g ai/ha): 0; Plant response rating, Pigweed ([12]; 125 g ai/ha): 0; Plant response rating, Pigweed ([12]; 500 g ai/ha): 0; Plant response rating, Wheat ([13]; 125 g ai/ha): 0; Plant response rating, Wheat ([13]; 500 g ai/ha): 0; Plant response rating, Corn (corn (Zea mays); 125 g ai/ha): 0; Plant response rating, Corn (corn (Zea mays); 500 g ai/ha): 0; Plant response rating, Blackgrass ([14]; 125 g ai/ha): 0; Plant response rating, Blackgrass ([14]; 500 g ai/ha): 0; Plant response rating, Galium ([15]; 125 g ai/ha): 0; Plant response rating, Galium ([15]; 500 g ai/ha): 0; Plant response rating (rice (Oryza sativa); 1000 g ai/ha): 0; Plant response rating ([16]; 1000 g ai/ha): 0; Plant response rating ([17]; 1000 g ai/ha): 0; Plant response rating ([18]; 1000 g ai/ha): 0"
O=C1NCCC(c2ccccc2C(F)(F)F)C1C(=O)Nc1cccc(F)c1F (racemic) [Compound 8],0,0,0,0,0,0,0,0,0,0,0,0,0,0,0,0,0,0,0,0,"Plant response rating, Barnyardgrass ([1]; 500 g ai/ha): 0; Plant response rating, Foxtail, Giant ([11]; 500 g ai/ha): 0; Plant response rating, Pigweed ([12]; 125 g ai/ha): 0; Plant response rating, Pigweed ([12]; 500 g ai/ha): 0; Plant response rating, Wheat ([13]; 125 g ai/ha): 0; Plant response rating, Wheat ([13]; 500 g ai/ha): 0; Plant response rating, Corn (corn (Zea mays); 125 g ai/ha): 0; Plant response rating, Corn (corn (Zea mays); 500 g ai/ha): 0; Plant response rating, Blackgrass ([14]; 125 g ai/ha): 0; Plant response rating, Blackgrass ([14]; 500 g ai/ha): 0; Plant response rating, Galium ([15]; 125 g ai/ha): 0; Plant response rating, Galium ([15]; 500 g ai/ha): 0"
O=C1NCCC(c2ccc(C(F)(F)F)cc2)C1C(=O)Nc1cccc(F)c1Cl (racemic) [Compound 15],60,0,0,0,80,0,0,80,90,0,0,60,70,10,60,0,40,0,0,70,"Barnyardgrass plant response rating ([1]; 500 g ai/ha): 80; Plant response rating, Foxtail, Giant ([11]; 500 g ai/ha): 80; Plant response rating, Pigweed ([12]; 125 g ai/ha): 0; Plant response rating, Pigweed ([12]; 500 g ai/ha): 0; Plant response rating, Wheat ([13]; 125 g ai/ha): 0; Plant response rating, Wheat ([13]; 500 g ai/ha): 0; Plant response rating, Corn (corn (Zea mays); 125 g ai/ha): 0; Plant response rating, Corn (corn (Zea mays); 500 g ai/ha): 0; Plant response rating, Blackgrass ([14]; 125 g ai/ha): 20; Plant response rating, Blackgrass ([14]; 500 g ai/ha): 50; Plant response rating, Galium ([15]; 125 g ai/ha): 30; Plant response rating, Galium ([15]; 500 g ai/ha): 70; Plant response rating (rice (Oryza sativa); 500 g ai/ha): 0; Plant response rating ([16]; 500 g ai/ha): 0; Plant response rating ([17]; 500 g ai/ha): 60; Plant response rating ([18]; 500 g ai/ha): 40"
